Measurements taken from ChEMBL document CHEMBL1150488 (1993).
Converted amounts (≈) assume the structure as drawn.

Experiments:
Staphylococcus aureus [1] = assay: Tested for zone of inhibition against Staphylococcus aureus UC6685 (1 mg/mL, 80 microL/6.5 mm); assay type: functional
Staphylococcus aureus [2] = assay: Tested for zone of inhibition against Staphylococcus aureus UC3665 (1 mg/mL, 80 microL/12.7 mm); assay type: functional
[3] = system: Staphylococcus epidermidis; assay: Tested for zone of inhibition against Staphylococcus epidermidis UC719 (1 mg/mL, 80 microL/6.5 mm); assay type: functional
Bacteroides fragilis [4] = assay: Tested for zone of inhibition against Bacteroides fragilis UC6513 (1 mg/mL, 80 microL/12.7 mm); assay type: functional
[5] = system: Staphylococcus epidermidis; assay: The compound (1 mg/mL, 80 microL/6.5 mm) was tested for zone of inhibition against Staphylococcus epidermidis UC719; Tr = trace; assay type: functional, organism-based
Staphylococcus aureus [6] = assay: The compound (1 mg/mL, 80 microL/6.5 mm) was tested for zone of inhibition against Staphylococcus aureus UC6685; Tr = trace; assay type: functional, organism-based
[7] = system: Bacteroides thetaiotaomicron; assay: The compound (1 mg/mL, 80 microL/6.5 mm) was tested for zone of inhibition against Bacteroides thetaiotaomicron UC 6360; assay type: functional
Clostridium perfringens [8] = assay: Tested in vitro for its antibacterial activity against Clostridium perfringens UC6509; assay type: functional
Streptococcus pyogenes = assay: Tsted in vitro for its antibacterial activity against Streptococcus pyogenes UC152; assay type: functional
[9] = system: Prevotella melaninogenica; assay: Tested in vitro for its antibacterial activity against Bacteroides melaninogenicus UC 6523; assay type: functional
[10] = system: Bacteroides thetaiotaomicron; assay: The compound was tested in vitro for its antibacterial activity against Bacteroides thetaiotaomicron UC 6360; assay type: functional
Clostridium perfringens [11] = assay: Tested for zone of inhibition against Clostridium perfringens UC6509; assay type: functional
Cutibacterium acnes = assay: Tested in vitro for its antibacterial activity against Propionibacterium acnes UC6564; assay type: functional
Escherichia coli = assay: Tested in vitro for its antibacterial activity against Escherichia coli UC9379; assay type: functional
[12] = system: Parabacteroides distasonis; assay: Tested in vitro for its antibacterial activity against Bacteroides distasonis UC6518; assay type: functional
Fusobacterium nucleatum = assay: Tested in vitro for its antibacterial activity against Fusobacterium nucleatum UC6324; assay type: functional
[13] = Tested in vitro for its antibacterial activity against Peptococcus variabilis UC6320; assay type: functional
Bacteroides fragilis [14] = assay: The compound was tested in vitro for its antibacterial activity against Bacteroides fragilis UC9370; assay type: functional
Clostridium perfringens [15] = assay: The compound (1 mg/mL, 80 microL/12.7 mm) was tested for zone of inhibition against Clostridium perfringens UC6509 (33H -, H: Hazy zone); assay type: functional
Staphylococcus aureus [16] = assay: The compound (1 mg/mL, 80 microL/12.7 mm) was tested for zone of inhibition against Staphylococcus aureus UC3665 (18H -, H: Hazy zone); assay type: functional
Bacteroides fragilis [17] = assay: Tested in vitro for its antibacterial activity against Bacteroides fragilis UC9370 [clindamycin 1 micro g/mL]; assay type: functional
[18] = system: Bacteroides thetaiotaomicron; assay: Tested in vitro for its antibacterial activity against Bacteroides thetaiotaomicron UC 9014[clindamycin 2 micro g/mL]; assay type: functional
Staphylococcus aureus [19] = assay: The compound (1 mg/mL, 80 microL/6.5 mm) was tested for zone of inhibition against Staphylococcus aureus UC6685 (21H -, H: Hazy zone); assay type: functional
[20] = system: Staphylococcus epidermidis; assay: The compound (1 mg/mL, 80 microL/6.5 mm) was tested for zone of inhibition against Staphylococcus epidermidis UC719 (20H -, H: Hazy zone); assay type: functional
[21] = system: Staphylococcus epidermidis; assay: The compound (1 mg/mL, 80 microL/6.5 mm) was tested for zone of inhibition against Staphylococcus epidermidis UC719 (14H -, H: Hazy zone); assay type: functional
Staphylococcus aureus [22] = assay: The compound (1 mg/mL, 80 microL/6.5 mm) was tested for zone of inhibition against Staphylococcus aureus UC6685 (20H -, H: Hazy zone); assay type: functional
Clostridium perfringens [23] = assay: The compound (1 mg/mL, 80 microL/12.7 mm) was tested for zone of inhibition against Clostridium perfringens UC6509; assay type: functional
Mycobacterium avium = assay: The compound (1 mg/mL, 80 microL/12.7 mm) was tested for zone of inhibition against Mycobacterium avium UC159; Tr = trace; assay type: functional, organism-based
Clostridium perfringens [24] = assay: The compound (1 mg/mL, 80 microL/12.7 mm) was tested for zone of inhibition against Clostridium perfringens UC6509; Tr = trace; assay type: functional, organism-based

Structure (SMILES)	Diameter of inhibition zone (Staphylococcus aureus [1]) [mm]	Diameter of inhibition zone (Staphylococcus aureus [2]) [mm]	Diameter of inhibition zone [3]	Diameter of inhibition zone (Bacteroides fragilis [4]) [mm]	Diameter of inhibition zone (Clostridium perfringens [11]) [mm]	further results
CCCCCC(=O)N1C/C(=C(\C)CN=[N+]=[N-])C1=O	27	27	19 mm	52		
CCCCCC(=O)N1C[C@H]([C@H](C)CNC(C)=O)C1=O		19		76		Diameter of inhibition zone [5]: Trace; Diameter of inhibition zone (Staphylococcus aureus [6]): Trace
CC(=O)OC[C@@H](C)[C@H]1CN(C(C)=O)C1=O	0	0		52	36	Diameter of inhibition zone [7]: 0 mm; MIC (Clostridium perfringens [8]): > 256 µg/mL; MIC (Streptococcus pyogenes): > 512 µg/mL; MIC [9]: 128 µg/mL (≈ 600 µM); MIC [10]: 128 µg/mL (≈ 600 µM); MIC (Cutibacterium acnes): > 256 µg/mL; MIC (Escherichia coli): > 512 µg/mL; MIC [12]: > 256 µg/mL; MIC (Fusobacterium nucleatum): 128 µg/mL (≈ 600 µM); MIC [13]: > 256 µg/mL; MIC (Bacteroides fragilis [14]): 256 µg/mL (≈ 1200 µM)
CCCCCC(=O)N1C/C(=C(/C)COC2CCCCO2)C1=O (stereo not drawn)	0	0	0 diameter mm	0		
CCCC(=O)OC[C@@H](C)[C@H]1CN(C(=O)c2ccccc2)C1=O	0		0 mm	24		Diameter of inhibition zone (Clostridium perfringens [15]): 33 mm; Diameter of inhibition zone (Staphylococcus aureus [16]): 18 mm
C[C@H]1[C@H](NC(=O)/C(=N\OC(C)(C)C(=O)O)c2csc(N)n2)C(=O)N1S(=O)(=O)O [AZTREONAM]						MIC [9]: 4 µg/mL (≈ 9.19 µM); MIC (Cutibacterium acnes): 2 µg/mL (≈ 4.59 µM); MIC [12]: 64 µg/mL (≈ 147 µM); MIC (Fusobacterium nucleatum): 4 µg/mL (≈ 9.19 µM)
CCCC(=O)N1C/C(=C(/C)COC(C)=O)C1=O	0	0	0 mm	31		
CCCC(=O)N1C/C(=C(\C)COC(C)=O)C1=O	8	18		31	0	Diameter of inhibition zone [5]: Trace
CCCCCC(=O)N1C/C(=C(\C)Cn2nnc(C(=O)OC)c2C(=O)OC)C1=O		0	0 mm	17	0	Diameter of inhibition zone (Staphylococcus aureus [6]): Trace
CCCCCC(=O)OC[C@@H](C)[C@H]1CN(C(=O)CCCCC)C1=O	24	31	8 mm			MIC (Bacteroides fragilis [17]): 8 µg/mL (≈ 24.6 µM); MIC (Clostridium perfringens [8]): 128 µg/mL (≈ 393 µM); MIC (Streptococcus pyogenes): > 160 µg/mL; MIC [9]: 8 µg/mL (≈ 24.6 µM); MIC (Cutibacterium acnes): 4 µg/mL (≈ 12.3 µM); MIC (Escherichia coli): > 160 µg/mL; MIC [12]: 256 µg/mL (≈ 787 µM); MIC (Fusobacterium nucleatum): 16 µg/mL (≈ 49.2 µM); MIC [13]: 256 µg/mL (≈ 787 µM); MIC [18]: 8 µg/mL (≈ 24.6 µM)
CCCC(=O)N1C[C@H]([C@H](C)COC(C)=O)C1=O	0	0	0 mm	78		MIC (Bacteroides fragilis [17]): > 128 µg/mL; Diameter of inhibition zone (Clostridium perfringens [15]): 33 mm; MIC (Clostridium perfringens [8]): > 128 µg/mL; MIC [9]: 64 µg/mL (≈ 265 µM); MIC (Cutibacterium acnes): 32 µg/mL (≈ 133 µM); MIC [12]: > 128 µg/mL; MIC (Fusobacterium nucleatum): 64 µg/mL (≈ 265 µM); MIC [13]: 64 µg/mL (≈ 265 µM); MIC [18]: 64 µg/mL (≈ 265 µM)
CCCC(=O)OC[C@@H](C)[C@H]1CN(C(=O)CCC)C1=O		28			63	MIC (Bacteroides fragilis [17]): 64 µg/mL (≈ 238 µM); MIC (Clostridium perfringens [8]): 128 µg/mL (≈ 475 µM); MIC (Streptococcus pyogenes): > 160 µg/mL; Diameter of inhibition zone (Staphylococcus aureus [19]): 21 mm; MIC [9]: 8 µg/mL (≈ 29.7 µM); MIC (Cutibacterium acnes): 8 µg/mL (≈ 29.7 µM); MIC (Escherichia coli): > 160 µg/mL; MIC [12]: 128 µg/mL (≈ 475 µM); MIC (Fusobacterium nucleatum): 64 µg/mL (≈ 238 µM); MIC [13]: 256 µg/mL (≈ 950 µM); Diameter of inhibition zone [20]: 20 mm; MIC [18]: 32 µg/mL (≈ 119 µM)
CCCCCC(=O)N1C/C(=C(\C)COC(C)=O)C1=O	12	19	7 mm	30	0	
COCCOC(=O)N1C/C(=C(\C)CN=[N+]=[N-])C1=O		26		0	20	Diameter of inhibition zone [21]: 14 mm; Diameter of inhibition zone (Staphylococcus aureus [22]): 20 mm
CO[C@@]1(NC(=O)C(C(=O)O)c2ccc(O)cc2)C(=O)N2C(C(=O)O)=C(CSc3nnnn3C)CO[C@@H]21 (stereo partly drawn) [MOXALACTAM]						MIC (Streptococcus pyogenes): 0.5 µg/mL (≈ 0.961 µM); MIC (Escherichia coli): 0.06 µg/mL (≈ 0.115 µM)
CCCC(=O)OC/C(C)=C1\CN(C(=O)CCC)C1=O	0	0	0 mm	25		Diameter of inhibition zone (Clostridium perfringens [23]): 30 mm
CC(=O)OC[C@H](C)[C@H]1CN(C(C)=O)C1=O	0	0	0 mm	20	0	
CCCCCC(=O)OC/C(C)=C1/CN(C(=O)CCCCC)C1=O	0	0	0 mm	0	0	
CCCCOC(=O)N1C/C(=C(\C)CN=[N+]=[N-])C1=O	39	30	32 mm	37	36	
CCCCOC(=O)N1C[C@H]([C@H](C)CNC(C)=O)C1=O	0	0	0 mm	36	19	
CCCC(=O)OC/C(C)=C1/CN(C(=O)CCC)C1=O	0	0	0 mm	21	0	
CCC[C@@H]1C[C@@H](C(=O)N[C@@H]([C@H]2O[C@H](SC)[C@H](O)[C@@H](O)[C@H]2O)[C@H](C)Cl)N(C)C1 [CLINDAMYCIN]	0	0	22 mm	30	24	MIC (Bacteroides fragilis [17]): < 0.12 µg/mL; MIC (Clostridium perfringens [8]): < 0.12 µg/mL; MIC [9]: < 0.12 µg/mL; MIC (Cutibacterium acnes): < 0.12 µg/mL; Diameter of inhibition zone (Mycobacterium avium): Trace; MIC [12]: < 0.12 µg/mL; MIC (Fusobacterium nucleatum): < 0.12 µg/mL; MIC [13]: 1 µg/mL (≈ 2.35 µM); MIC [18]: 4 µg/mL (≈ 9.41 µM)
CCCCCC(=O)N1C[C@H]([C@H](C)COC(C)=O)C1=O	9	36	23 mm			
CCCC(=O)N1C[C@H]([C@@H](C)COC(C)=O)C1=O	0	0	0 mm	36	0	
CCCCCC(=O)N1C/C(=C(\C)CF)C1=O	39	36	31 mm	88	78	
CC(=O)OC/C(C)=C1/CN(C(C)=O)C1=O	0	0	0 mm	29	0	
CCCC(=O)OC/C(C)=C1/CN(C(=O)c2ccccc2)C1=O	0	16	0 mm	0		Diameter of inhibition zone (Mycobacterium avium): Trace; Diameter of inhibition zone (Clostridium perfringens [24]): Trace
CCCCCC(=O)N1C[C@H]([C@H](C)Cn2nnc(C(=O)OC)c2C(=O)OC)C1=O	0	0	0 mm	65		
CCCCCC(=O)N1C/C(=C(/C)CO)C1=O	0	0	0 mm	27	28	Diameter of inhibition zone (Mycobacterium avium): Trace
CCCC(=O)OC[C@H](C)[C@H]1CN(C(=O)CCC)C1=O		0		41	33	MIC (Bacteroides fragilis [17]): 256 µg/mL (≈ 950 µM); MIC (Clostridium perfringens [8]): > 256 µg/mL; MIC [9]: 64 µg/mL (≈ 238 µM); MIC (Cutibacterium acnes): 64 µg/mL (≈ 238 µM); Diameter of inhibition zone [21]: 14 mm; MIC [12]: 256 µg/mL (≈ 950 µM); MIC (Fusobacterium nucleatum): 256 µg/mL (≈ 950 µM); MIC [13]: 256 µg/mL (≈ 950 µM); Diameter of inhibition zone (Staphylococcus aureus [6]): Trace; MIC [18]: 128 µg/mL (≈ 475 µM)
